In US5821244A, “Condensed nitrogen heterocycles and their use as pesticides, fungicides and antimycotics” (Hoechst Schering AgrEvo GmbH, priority 1993, dated 1998) one finds mortality, disease suppression and inhibition data, which are given here for 24 compounds.

One may read the mortality as the share of the test organisms that died. What is called inhibition is the relative decrease from the control value, in per cent. A high value points to a response far below the control.

In test [1] the test system is tobacco hornworm (Manduca sexta). As to the kind of experiment: Oral application to larvae (L4) of tobacco hornworm. It is filed as in vivo. The protocol: Active substances which were dissolved in acetone were applied orally to butterfly larvae (L4) of tobacco hornworm (Manduca sexta). After active substance of Example No. 3 or 8 (2×10^-4 g of a.i./animal) had been applied, a mortality of 100% was found after 48 hours.

Test [2] deals with eggs of Diabrotica undecimpunctata. Put plainly: Activity against freshly deposited eggs of southern corn rootworm. It is filed as in vivo. As to conditions: 120 h, after 5 days. Here is the method: Freshly deposited eggs of Diabrotica undecimpunctata (southern corn rootworm) were sprayed, on paper filters, with in each case 2 ml of an aqueous suspension of wettable powders (active substance content 250 ppm) and were subsequently observed at room temperature. After 5 days, the eggs were examined for mortality.

A further test concerns Plasmopara viticola. Put plainly: Fungicide test, Plasmopara viticola on grapevine seedlings. It is filed as in vivo. Particulars: 500 mg of active substance/l spray mixture; incubation 7 days. Here is the method: Approximately 6 weeks after sowing, grapevine seedlings "Riesling/Ehrenfelder" were treated to runoff point using aqueous suspensions of the compounds according to the invention. After the spray coating had dried on, the plants were inoculated with a zoosporangia suspension of Plasmopara viticola and the dripping wet plants were placed for 4 to 5 hours into a controlled-environment cabinet at 23° C. at a relative atmospheric humidity of 80-90%.
After an incubation time of 7 days in the greenhouse, the plants were returned overnight into the controlled-environment cabinet to stimulate sporulation of the fungus. The disease was then evaluated. The disease level was expressed in % of diseased leaf area in comparison with the untreated, 100% infected control plants.

Test [3] deals with eggs of the large milkweed bug (Oncopeltus fasciatus). As to the kind of experiment: Ovicidal activity, eggs of large milkweed bug on paper filter disks. As to conditions: 168 h, after 7 days. It is filed as in vivo. Here is the method:
Paper filter disks onto which eggs of the large milkweed bug (Oncopeltus fasciatus) have been placed are treated with in each case 0.5 ml of aqueous dilution of the test formulation. After the coating has dried on, the Petri dish is sealed, and the inside is kept at maximum atmospheric humidity. After the dishes have been kept at room temperature, the ovicidal activity was determined after 7 days.

The next test deals with Botrytis cinerea. As to the kind of experiment: Fungicide test, Botrytis cinerea on broad beans. It is filed as in vivo. Particulars: 500 mg of active substance/l spray mixture; approximately 1 week after inoculation. The protocol:
Broad beans cv. "Herz Freya" or "[…]" approximately 14 days old, were treated to runoff point with aqueous suspensions of the compounds according to the invention. After the spray coating had dried off, the plants were inoculated with a spore suspension (1.5 million spores/ml) of Botrytis cinerea. The plants were grown on in a controlled-environment cabinet at 20°-22° C. under relative atmospheric humidity of approximately 99%. […] The experiments were evaluated approximately 1 week after inoculation. The disease level of the plants was scored in percent relative to untreated, 100% infected control plants.

Test [4] relates to whitefly (Trialeurodes vaporariorum). As to the kind of experiment: Insecticide test, whitefly on bean plants. It is filed as in vivo. Particulars: 336 h, after 14 days. The source says:
Bean plants which were heavily populated with whitefly (Trialeurodes vaporariorum) were sprayed to the beginning of the run-off point using aqueous suspensions of concentrates of wettable powders (250 ppm active substance content). After the plants had been placed in the greenhouse, they were subjected to microscope checks after 14 days, resulting in a 100% mortality in the case of each preparation containing the active substances of Example Nos. 4, 5, 10, 19, 20, 24, 27, 28, 130 and 139.

Test [5] relates to two-spotted spider mite (Tetranychus urticae). Put plainly: Acaricide test, two-spotted spider mite on bean plants. It is filed as in vivo. Particulars: 168 h, after 7 days, read-out: mortality rate of the mites. An excerpt:
Bean plants (Phaseolus v.) which were heavily infested with the two-spotted spider mite (Tetranychus urticae, full population) were sprayed with the aqueous dilution of a concentrate of wettable powder, containing 250 ppm of the active substance in question. The mortality of the mites was checked after 7 days.

Test [6] deals with tropical cattle ticks (Boophilus microplus). Put plainly: In vitro test on tropical cattle ticks, inhibition of oviposition. It is filed as in vivo. Particulars: Rhipicephalus microplus, 336 h, immersion five minutes, two weeks after treatment. The protocol:
In vitro test on tropical cattle ticks (Boophilus microplus) The following experimental set-up allowed the effectiveness of the compounds according to the invention against ticks to be confirmed.
To produce a suitable preparation of active substance, the active substances were dissolved to 10% strength (w/v) in a mixture composed of dimethylformamide (85 g), nonylphenolpolyglycol ether (3 g) and ethoxylated castor oil (7 g), and the resulting emulsion concentrates were diluted with water to a test concentration of 500 ppm.
Batches of ten females of the tropical tick Boophilus microplus which had sucked themselves full were immersed for five minutes in these active substance dilutions. The ticks were subsequently dried on paper filters and then attached, with their backs, to an adhesive film-in order to deposit eggs. The ticks were kept in an incubator at 28° C. at an atmospheric humidity of 90%.
As a control, the female ticks were immersed just in water. Two weeks after the treatment, the inhibition of oviposition was used to determine the effectiveness. 100% means that no ticks have deposited eggs, 0 that all ticks have deposited eggs.

The next test relates to Spodoptera littoralis. As to the kind of experiment: Insecticide test, Egyptian cotton leafworm larvae (L3). It is filed as in vivo. Particulars: 120 h, after 5 days. The protocol:
Spodoptera littoralis (Egyptian cotton leafworm) larvae in the L3 stage were introduced into Petri dishes filled with nutrient medium, and these dishes together with the larvae were sprayed with 2 ml of an aqueous suspension of wettable powder containing 250 ppm (Corresponding to 6000 l of water/ha). After the spray coating had dried on, the Petri dishes were sealed and stored for 5 days at 21° C. After 5 days, the compound of Example No. 28 had caused a mortality of the Spodoptera larvae of 100%.

Another test has as its system Phytophthora infestans. It is filed as in vivo. Particulars: 500 mg of active substance/l spray mixture; approximately 1 week after inoculation.
The subject of another test is Leptosphaeria nodorum. Put plainly: Fungicide test, Leptosphaeria nodorum on wheat plants. It is filed as in vivo. As to conditions: 500 mg of active substance/l spray mixture. The protocol: Wheat plants cv. "Jubilar" in the 2-leaf stage were wetted to runoff point using aqueous suspensions of the preparations according to the invention. […] The plants were grown on in the greenhouse at a relative atmospheric humidity of approximately 90% until the symptoms became visible. The disease level was determined in % of diseased leaf area in comparison with the untreated, 100% infected control plants.

For a further test, the system named is Erysiphe graminis. As to the kind of experiment: Fungicide test, Erysiphe graminis (powdery mildew) on barley plants. It is filed as in vivo, Erysiphe graminis f. sp. hordei. Particulars: 500 mg of active substance/l spray mixture; applied 24 hours after inoculation; 10 days. The protocol: Barley plants in the 3-leaf stage were inoculated with large amounts of conidia of powdery mildew of barley (Erysiphe graminis f. sp. hordei) and placed in a greenhouse at 20° C. and a relative atmospheric humidity of 90 to 95%. 24 hours after the inoculation, the plants were wetted uniformly with the abovementioned compounds. After an incubation time of 10 days, the plants were examined for the occurrence of powdery mildew of barley. The disease level was determined in % of diseased leaf area based on untreated, 100% infected control plants.

In a further test the test system is Pyrenophora teres. Put plainly: Fungicide test, Pyrenophora teres on barley plants. It is filed as in vivo. As to conditions: 500 mg of active substance/l spray mixture; approximately 1 week after inoculation. The protocol:
Barley plants cv. "Igri" in the 2-leaf stage were wetted to runoff point with an aqueous suspension of the compounds according to the invention. […] The infected plants were subsequently grown on in the greenhouse at 25° C. at a relative atmospheric humidity of 80%. The disease level was evaluated approximately 1 week after inoculation. The disease level was determined in % of diseased leaf area in comparison with untreated, 100% infected control plants.

On to `CC(C)(C)C1CCC(Nc2ccnc3ccccc23)CC1` (stereo not drawn) [Compound 3], for which, in test [1] (po, 48 h), the mortality at 0.2 mg stood at 100%. For the same compound, the mortality at 250 ppm in test [2] and in test [3] was 100% in each case. In addition, the disease suppression result with Plasmopara viticola and in the test on Botrytis cinerea was “suppress disease completely” in each case.
With `CC(C)(C)C1CCC(Oc2ccnc3ccccc23)CC1` (stereo not drawn) [Compound 4], the mortality at 250 ppm in test [2], in test [4] and in test [5] was 100% each time.
`CC(C)(C)[C@H]1CC[C@@H](Nc2ccnc3c(F)cccc23)CC1` [Compound 5]: in test [4], the mortality at 250 ppm stood at 100%.
Consider `CC(C)(C)[C@H]1CC[C@@H](Nc2ccnc3cc(Cl)ccc23)CC1` [Compound 7], for which the disease suppression result in the test on Plasmopara viticola and with Botrytis cinerea was “suppress disease completely” throughout.
With `CC(C)(C)[C@H]1CC[C@@H](Nc2ccnc3cc(C(F)(F)F)ccc23)CC1` [Compound 8], in [1] (oral, 2×10^-4 g of a.i./animal, after 48 hours), the mortality at 0.2 mg is 100%.
In the case of `CCCC[C@H]1CC[C@@H](Oc2ccnc3ccccc23)CC1` [Compound 10], the mortality at 250 ppm in test [4], in test [5] and in test [3] was 100% throughout.
As to `CCC(C)(C)[C@H]1CC[C@@H](Oc2ccnc3ccccc23)CC1` [Compound 14], the inhibition at 500 ppm in [6] was determined as 100%.
For `CC(C)(C)CC(C)(C)C1CCC(Nc2ccnc3ccccc23)CC1` (stereo not drawn) [Compound 19], the mortality at 250 ppm in test [4], in test [5] and in test [3] was 100% in each case. Further, the disease suppression result with Plasmopara viticola and in the test on Botrytis cinerea was “suppress disease completely” each time.
For the compound `CC(C)(C)CC(C)(C)[C@H]1CC[C@@H](Oc2ccnc3ccccc23)CC1` [Compound 20], the mortality at 250 ppm in [4] and in test [5] was 100% throughout. In [6], this compound came in with an inhibition at 500 ppm of 100%.
`c1ccc2c(NC3CCC(C4CCCCC4)CC3)ccnc2c1` (stereo not drawn) [Compound 23]: the mortality at 250 ppm in test [5] and in test [3] was 100% in each case. Also, the disease suppression entry with Botrytis cinerea was “suppress disease completely”.
Turning to `c1ccc2c(O[C@H]3CC[C@@H](C4CCCCC4)CC3)ccnc2c1` [Compound 24, 4-(4-Cyclohexylcyclohexyloxy)quinoline], the mortality at 250 ppm in test [4] and in [5] was 100% in each case.
On to `c1ccc([C@H]2CC[C@@H](Nc3ccnc4ccccc34)CC2)cc1` [Compound 25, 4-(4-Phenylcyclohexylamino)quinoline], for which the disease suppression result in the test on Plasmopara viticola and with Botrytis cinerea was “suppress disease completely” throughout.
As for `c1ccc([C@H]2CC[C@H](Nc3ccnc4ccccc34)CC2)cc1` [Compound 26, 4-(4-Phenylcyclohexylamino)quinoline], the disease suppression entry in the test on Plasmopara viticola and in the test with Botrytis cinerea was “suppress disease completely” in each case.
Regarding `c1ccc([C@H]2CC[C@@H](Oc3ccnc4ccccc34)CC2)cc1` [Compound 27], the mortality at 250 ppm in [2], in test [4], in test [5] and in [3] was 100% each time. This compound came in with an inhibition at 500 ppm in test [6] of 100%.
Turning to `Fc1cccc2c(N[C@H]3CC[C@@H](c4ccccc4)CC3)ccnc12` [Compound 28], the mortality at 250 ppm (in [4]; in the test on Spodoptera littoralis) was 100% throughout. In test [6], this compound returned an inhibition at 500 ppm of 100%.
For `CCOc1ccc([C@H]2CC[C@@H](Nc3ccnc4ccccc34)CC2)cc1` [Compound 45], the mortality at 250 ppm in test [3] turned out to be 100%. Also, the disease suppression entry with Phytophthora infestans and in the test on Botrytis cinerea was “suppress disease completely” each time.
With `Cc1cc(N[C@H]2CC[C@@H](C(C)(C)CC(C)(C)C)CC2)c2ccccc2n1` [Compound 80], the disease suppression entry in the test on Botrytis cinerea is “suppress disease completely”.
In the case of `CCC(C)(C)[C@H]1CC[C@@H](Nc2ccnc3cccnc23)CC1` [Compound 130], the disease suppression entry in the test with Leptosphaeria nodorum and in the test on Plasmopara viticola was “suppress disease completely” in each case. In addition, the mortality at 250 ppm in [2], in [4], in test [5] and in test [3] was 100% in each case.
For the compound `CC(C)(C)CC(C)(C)[C@H]1CC[C@@H](Oc2ccnc3cccnc23)CC1` [Compound 133], the mortality at 250 ppm in test [5] stood at 100%.
Turning to `c1ccc([C@H]2CC[C@@H](Oc3ccnc4cccnc34)CC2)cc1` [Compound 139], the mortality at 250 ppm in [2], in [4], in test [5] and in [3] was 100% throughout. The disease suppression entry in the test on Erysiphe graminis and in the test with Pyrenophora teres was “suppress disease completely” each time.
In [3], `c1ccc([C@H]2CC[C@@H](Nc3ccnc4ncccc34)CC2)cc1` [Compound 208] came in with a mortality at 250 ppm of 100%.
Take `Cc1ccc2c(NC3CCC(C(C)(C)CC(C)(C)C)CC3)ccnc2n1` (stereo not drawn) [Compound 215]: the mortality at 250 ppm in test [3] was determined as 100%.
The compound `CCC(C)(C)[C@H]1CC[C@@H](Nc2ncnc3cccnc23)CC1` [Compound 232] displayed a mortality at 250 ppm in test [2] of 100%. For the same compound, in the test on Plasmopara viticola, the disease suppression result is on record as “suppress disease completely”.
Regarding `c1ccc([C@H]2CC[C@@H](Nc3ncnc4ncccc34)CC2)cc1` [Compound 280], the mortality at 250 ppm in [3] came to 100%.
